How the values were obtained:
[1] = tested on: HOP-62; experiment: NCI-60 screen (SRB), non-small cell lung cancer; settings: Homo sapiens
[2] = tested on: SR; experiment: NCI-60 screen (SRB), leukemia; settings: Homo sapiens
[3] = tested on: NCI-H226; experiment: NCI-60 screen (SRB), non-small cell lung cancer; settings: Homo sapiens
[4] = tested on: HS 578T; experiment: NCI-60 screen (SRB), breast cancer
[5] = tested on: NCI-H460; experiment: NCI-60 screen (SRB), non-small cell lung cancer; settings: Homo sapiens
[6] = tested on: RXF 393; experiment: NCI-60 screen (SRB), renal cancer; settings: Homo sapiens
[7] = tested on: HCT-116; experiment: NCI-60 screen (SRB), colon cancer
[8] = tested on: COLO 205; experiment: NCI-60 screen (SRB), colon cancer
[9] = tested on: MDA-MB-231/ATCC; experiment: NCI-60 screen (SRB), breast cancer; settings: Homo sapiens
[10] = tested on: MALME-3M; experiment: NCI-60 screen (SRB), melanoma; settings: Homo sapiens
[11] = tested on: NCI/ADR-RES; experiment: NCI-60 screen (SRB), ovarian cancer; settings: Homo sapiens
[12] = tested on: MOLT-4; experiment: NCI-60 screen (SRB), leukemia; settings: Homo sapiens
[13] = tested on: UACC-257; experiment: NCI-60 screen (SRB), melanoma; settings: Homo sapiens
[14] = tested on: NCI-H522; experiment: NCI-60 screen (SRB), non-small cell lung cancer; settings: Homo sapiens
[15] = tested on: UO-31; experiment: NCI-60 screen (SRB), renal cancer
[16] = tested on: HT29; experiment: NCI-60 screen (SRB), colon cancer; settings: Homo sapiens
[17] = tested on: SK-MEL-5; experiment: NCI-60 screen (SRB), melanoma; settings: Homo sapiens
[18] = tested on: A549/ATCC; experiment: NCI-60 screen (SRB), non-small cell lung cancer; settings: Homo sapiens
[19] = tested on: TK-10; experiment: NCI-60 screen (SRB), renal cancer; settings: Homo sapiens
[20] = tested on: ACHN; experiment: NCI-60 screen (SRB), renal cancer; settings: Homo sapiens
[21] = tested on: MDA-MB-435; experiment: NCI-60 screen (SRB), melanoma; settings: Homo sapiens
[22] = tested on: SK-OV-3; experiment: NCI-60 screen (SRB), ovarian cancer; settings: Homo sapiens
[23] = tested on: PC-3; experiment: NCI-60 screen (SRB), prostate cancer; settings: Homo sapiens
[24] = tested on: leukemia cell lines; experiment: NCI-60 screen (SRB), leukemia panel; assay type: cell-based; settings: Homo sapiens, read-out: IC50 (GI50), range over leukemia panel
[25] = tested on: MDA-MB-468; experiment: NCI-60 screen (SRB), breast cancer; settings: Homo sapiens
[26] = tested on: HCT-15; experiment: NCI-60 screen (SRB), colon cancer; settings: Homo sapiens
[27] = tested on: LOX IMVI; experiment: NCI-60 screen (SRB), melanoma
[28] = tested on: SN12C; experiment: NCI-60 screen (SRB), renal cancer; settings: Homo sapiens
[29] = tested on: UACC-62; experiment: NCI-60 screen (SRB), melanoma; settings: Homo sapiens
[30] = tested on: SF-268; experiment: NCI-60 screen (SRB), CNS cancer; settings: Homo sapiens
[31] = tested on: HOP-92; experiment: NCI-60 screen (SRB), non-small cell lung cancer; settings: Homo sapiens

## COc1cc(OC)c(S(=O)(=O)N(CCCl)CCCl)cc1C(=O)/C=C/c1cc(OC)c(OC)c(OC)c1 [Compound 18e, (E)-N,N-bis(2-Chloroethyl)-2,4-dimethoxy-5-(3-(3,4,5-trimethoxyphenyl)acryloyl)benzenesulfonamide]
[1]; HOP-62
  IC50: 3.77 µM
[1]; HOP-62, read-out: LC50
  CC50: > 100 µM
[2]
  IC50: 0.99 µM
[2]; read-out: LC50
  CC50: > 100 µM
[3]; NCI-H226
  IC50: 2.61 µM
[3]; NCI-H226, read-out: LC50
  CC50: > 100 µM
[4]; HS 578T, single dose 10 μM
  GI%: 21.70%
[4]; Homo sapiens, Hs-578T
  IC50: > 100 µM
[4]; Homo sapiens, Hs-578T, read-out: LC50
  CC50: > 100 µM
[5]; NCI-H460
  IC50: 1.95 µM
[5]; NCI-H460, read-out: LC50
  CC50: > 100 µM
[6]; RXF 393
  IC50: 2.83 µM
[6]; RXF 393, read-out: LC50
  CC50: 6.44 µM
[7]; HCT-116, single dose 10 μM
  lethality: 87.74%
[7]; Homo sapiens, HCT-116
  IC50: 2.82 µM
[7]; Homo sapiens, HCT-116, read-out: LC50
  CC50: 6.47 µM
[8]; COLO 205, single dose 10 μM
  lethality: 89.76%
[8]; Homo sapiens, COLO 205
  IC50: 4.46 µM
[8]; Homo sapiens, COLO 205, read-out: LC50
  CC50: 8.39 µM
[9]; MDA-MB-231
  IC50: > 100 µM
[9]; MDA-MB-231, read-out: LC50
  CC50: > 100 µM
[10]
  IC50: 7.18 µM
[10]; read-out: LC50
  CC50: > 100 µM
[11]
  IC50: > 100 µM
[11]; read-out: LC50
  CC50: > 100 µM
[12]; MOLT-4
  IC50: 2.04 µM
[12]; MOLT-4, read-out: LC50
  CC50: > 100 µM
[13]; UACC-257
  IC50: 3.89 µM
[13]; UACC-257, read-out: LC50
  CC50: 9.14 µM
[14]; NCI-H522
  IC50: 1.66 µM
[14]; NCI-H522, read-out: LC50
  CC50: 8.59 µM
[15]; Homo sapiens, UO-31
  IC50: 2.92 µM
[15]; Homo sapiens, UO-31, read-out: LC50
  CC50: 5.51 µM
[15]; UO-31, single dose 10 μM
  lethality: 93.86%
[16]; HT-29
  IC50: 5.92 µM
[16]; HT-29, read-out: LC50
  CC50: > 100 µM
[17]; SK-MEL-5
  IC50: 3.64 µM
[17]; SK-MEL-5, read-out: LC50
  CC50: 7.19 µM
[18]; A549
  IC50: 3.11 µM
[18]; A549, read-out: LC50
  CC50: > 100 µM
[19]; TK-10
  IC50: 75 µM
[19]; TK-10, read-out: LC50
  CC50: > 100 µM
[20]
  IC50: 6.16 µM
[20]; read-out: LC50
  CC50: > 100 µM
[21]; MDA-MB-435
  IC50: 7.51 µM
[21]; MDA-MB-435, read-out: LC50
  CC50: > 100 µM
[22]; SK-OV-3
  IC50: 13 µM
[22]; SK-OV-3, read-out: LC50
  CC50: > 100 µM
[23]; PC-3
  IC50: > 100 µM
[23]; PC-3, read-out: LC50
  CC50: > 100 µM
[24]
  IC50: 0.99 to 2.52 µM
[25]; MDA-MB-468
  IC50: 3.66 µM
[25]; MDA-MB-468, read-out: LC50
  CC50: 8.84 µM
[26]; HCT-15
  IC50: 3.98 µM
[26]; HCT-15, read-out: LC50
  CC50: > 100 µM
[27]; Homo sapiens
  IC50: 2.89 µM
[27]; Homo sapiens, read-out: LC50
  CC50: 5.79 µM
[27]; single dose 10 μM
  lethality: 84.53%
[28]
  IC50: 13 µM
[28]; read-out: LC50
  CC50: > 100 µM
[29]; UACC-62
  IC50: 4.94 µM
[29]; UACC-62, read-out: LC50
  CC50: > 100 µM
[30]; SF-268
  IC50: 7.7 µM
[30]; SF-268, read-out: LC50
  CC50: > 100 µM
[31]; HOP-92
  IC50: > 100 µM
[31]; HOP-92, read-out: LC50
  CC50: > 100 µM

From PMC9604400, “Synthesis, Anticancer and Antitubercular Properties of New Chalcones and Their Nitrogen-Containing Five-Membered Heterocyclic Hybrids Bearing Sulfonamide Moiety” (International Journal of Molecular Sciences, 2022)
